Data from PubChem BioAssay AID248 (DTP/NCI, 2004).
“And” between values parts separate entries of the source, which are not always exact repeats. Equal values may be shown once. Toxic doses and inconclusive results are not listed. Cut-off read from the data, not from the text of the source: active = T/C of 150% or more; inactive = T/C below 125%.

System: L1210 leukemia ip in BDF1 mice, survival T/C
Assay: NCI In Vivo Anticancer Drug Screen. Data for tumor model L1210 Leukemia (intraperitoneal) in B6D2F1 (BDF1) mice
Settings: endpoint: mean survival time, higher = longer survival
Method in brief: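 Transplanted-tumor mice were given test agent; controls received vehicle only. Survival readings from the two groups were divided (treated over control).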

[1] = dose: 50.0 mg/kg/injection, schedule: Q01DX001 (ip), vehicle: saline
[2] = dose: 200.0 mg/kg/injection, schedule: Q01DX001 (ip), vehicle: saline
[3] = dose: 400.0 mg/kg/injection, schedule: Q01DX001 (ip), vehicle: saline
[4] = dose: 75.0 mg/kg/injection, schedule: Q01DX001 (ip), vehicle: saline
[5] = dose: 150.0 mg/kg/injection, schedule: Q01DX001 (ip), vehicle: saline
[6] = dose: 75.0 mg/kg/injection, schedule: Q04DX003 (ip), vehicle: saline
[7] = dose: 150.0 mg/kg/injection, schedule: Q04DX003 (ip), vehicle: saline
[8] = dose: 100.0 mg/kg/injection, schedule: Q01DX001 (ip), vehicle: saline

Measured: T/C

CCOC(=O)Cn1c2ccccc2c2cc3c(C)nccc3c(C)c21
inactive: dose: 4.69 mg/kg/injection, schedule: Q01DX009 (ip), vehicle: saline with Tween-80 93 % of control | dose: 9.37 mg/kg/injection, schedule: Q01DX009 (ip), vehicle: saline with Tween-80 96 % of control | dose: 9.37 mg/kg/injection, schedule: Q04DX003 (ip), vehicle: saline with Tween-80 96 % of control | dose: 18.75 mg/kg/injection, schedule: Q01DX009 (ip), vehicle: saline with Tween-80 95 % of control | dose: 18.75 mg/kg/injection, schedule: Q04DX003 (ip), vehicle: saline with Tween-80 105 % of control | dose: 37.5 mg/kg/injection, schedule: Q01DX009 (ip), vehicle: saline with Tween-80 95 % of control | dose: 37.5 mg/kg/injection, schedule: Q04DX003 (ip), vehicle: saline with Tween-80 96 % of control | dose: 75.0 mg/kg/injection, schedule: Q01DX009 (ip), vehicle: saline with Tween-80 103 % of control | dose: 75.0 mg/kg/injection, schedule: Q04DX003 (ip), vehicle: saline with Tween-80 105 % of control | dose: 150.0 mg/kg/injection, schedule: Q01DX009 (ip), vehicle: saline with Tween-80 97 % of control | dose: 150.0 mg/kg/injection, schedule: Q04DX003 (ip), vehicle: saline with Tween-80 113 % of control

CCN(CCCl)Cc1ccc(-c2c3ccccc3cc3c2ccc2ccccc23)cc1
inactive: dose: 78.0 mg/kg/injection, schedule: Q01DX001 (ip), vehicle: carboxymethylcellulose (CMC) 90 % of control | dose: 118.0 mg/kg/injection, schedule: Q01DX001 (ip), vehicle: carboxymethylcellulose (CMC) 92 % of control | dose: 177.0 mg/kg/injection, schedule: Q01DX001 (ip), vehicle: carboxymethylcellulose (CMC) 95 % of control

O=C(CC(O)(C(F)(F)F)C(F)(F)F)CC(O)(C(F)(F)F)C(F)(F)F
inactive: dose: 0.25 mg/kg/injection, schedule: Q01DX009 (ip), vehicle: other 111 % of control | dose: 0.5 mg/kg/injection, schedule: Q01DX009 (ip), vehicle: other 107 % of control and 88 % of control | dose: 1.0 mg/kg/injection, schedule: Q01DX009 (ip), vehicle: other 97 % of control | dose: 1.0 mg/kg/injection, schedule: Q04DX003 (ip), vehicle: other 94 % of control | dose: 1.25 mg/kg/injection, schedule: Q01DX009 (ip), vehicle: saline 95 % of control | dose: 2.0 mg/kg/injection, schedule: Q01DX009 (ip), vehicle: other 108 % of control | dose: 2.0 mg/kg/injection, schedule: Q04DX003 (ip), vehicle: other 87 % of control | dose: 2.5 mg/kg/injection, schedule: Q01DX009 (ip), vehicle: saline with Tween-80 102 % of control | dose: 2.5 mg/kg/injection, schedule: Q01DX009 (ip), vehicle: saline 104 % of control | dose: 3.13 mg/kg/injection, schedule: Q04DX003 (ip), vehicle: other 104 % of control | dose: 5.0 mg/kg/injection, schedule: Q01DX009 (ip), vehicle: saline with Tween-80 97 % of control | dose: 5.0 mg/kg/injection, schedule: Q01DX009 (ip), vehicle: saline 95 % of control

CC1(C)N=C(N)N=C(N)N1c1cccc(CCCCc2ccccc2)c1
inactive: dose: 5.0 mg/kg/injection, schedule: Q01DX001 (ip), vehicle: saline 86 % of control | dose: 10.0 mg/kg/injection, schedule: Q01DX001 (ip), vehicle: saline 92 % of control | dose: 20.0 mg/kg/injection, schedule: Q01DX001 (ip), vehicle: saline 103 % of control | dose: 25.0 mg/kg/injection, schedule: Q01DX001 (ip), vehicle: saline with Tween-80 97 % of control | dose: 40.0 mg/kg/injection, schedule: Q01DX001 (ip), vehicle: saline 92 % of control | dose: 50.0 mg/kg/injection, schedule: Q01DX001 (ip), vehicle: saline with Tween-80 104 % of control | [1] 112 % of control | dose: 100.0 mg/kg/injection, schedule: Q01DX001 (ip), vehicle: saline with Tween-80 106 % of control

O=C(O)C1C(C(=O)O)C(c2ccccc2)C1c1ccccc1 (configuration not stated)
inactive: dose: 50.0 mg/kg/injection, schedule: Q01DX001 (ip), vehicle: carboxymethylcellulose (CMC) 90 % of control | dose: 100.0 mg/kg/injection, schedule: Q01DX001 (ip), vehicle: carboxymethylcellulose (CMC) 97 % of control | dose: 200.0 mg/kg/injection, schedule: Q01DX001 (ip), vehicle: carboxymethylcellulose (CMC) 103 % of control | dose: 400.0 mg/kg/injection, schedule: Q01DX001 (ip), vehicle: carboxymethylcellulose (CMC) 90 % of control

O=C(O)c1ccc(/C=N/NC(=S)Nc2cccc3cccnc23)cc1
inactive: [2] 94 % of control | [3] 97 % of control

COc1ccc2c(c1O)[C@]13CCN(C)[C@H](C2)[C@@H]1CCC(=O)C3
inactive: [4] 101 % of control | [5] 106 % of control

CCCCC[n+]1cccc(C#N)c1
inactive: dose: 37.5 mg/kg/injection, schedule: Q04DX003 (ip), vehicle: saline 100 % of control | [4] 96 % of control | [6] 91 % of control | [5] 100 % of control | [7] 100 % of control

CN(C)/C(N)=N/S(=O)(=O)c1ccc(C#N)cc1
inactive: [8] 88 % of control | [2] 96 % of control | [3] 94 % of control

Cc1ccc(NC(=O)NCc2ccco2)cc1
inactive: dose: 222.0 mg/kg/injection, schedule: Q01DX Z (ip), vehicle: methylcellulose (MC) 94 % of control | dose: 333.0 mg/kg/injection, schedule: Q01DX Z (ip), vehicle: methylcellulose (MC) 100 % of control | dose: 500.0 mg/kg/injection, schedule: Q01DX Z (ip), vehicle: methylcellulose (MC) 94 % of control

CCOC(=O)C1=C(C)NC(=O)NC1c1ccc(N(CCCl)CCCl)cc1 (configuration not stated)
inactive: dose: 100.0 mg/kg/injection, schedule: Q01DX009 (ip), vehicle: Klucel (hydroxypropylcellulose) (HPC) 93 % of control | dose: 100.0 mg/kg/injection, schedule: Q04DX003 (ip), vehicle: Klucel (hydroxypropylcellulose) (HPC) 97 % of control | dose: 200.0 mg/kg/injection, schedule: Q01DX009 (ip), vehicle: Klucel (hydroxypropylcellulose) (HPC) 112 % of control | dose: 200.0 mg/kg/injection, schedule: Q04DX003 (ip), vehicle: Klucel (hydroxypropylcellulose) (HPC) 90 % of control | dose: 400.0 mg/kg/injection, schedule: Q01DX009 (ip), vehicle: Klucel (hydroxypropylcellulose) (HPC) 104 % of control | dose: 400.0 mg/kg/injection, schedule: Q04DX003 (ip), vehicle: Klucel (hydroxypropylcellulose) (HPC) 101 % of control

CNc1ccccc1C(=O)N/N=C/c1cccc([N+](=O)[O-])c1
inactive: dose: 100.0 mg/kg/injection, schedule: Q04DX002 (ip), vehicle: Klucel (hydroxypropylcellulose) (HPC) 93 % of control | dose: 200.0 mg/kg/injection, schedule: Q04DX002 (ip), vehicle: Klucel (hydroxypropylcellulose) (HPC) 96 % of control | dose: 400.0 mg/kg/injection, schedule: Q04DX002 (ip), vehicle: Klucel (hydroxypropylcellulose) (HPC) 86 % of control

CCN(CC)c1ccc(NC(=S)Nc2ccc(N(CC)CC)cc2)cc1
inactive: dose: 75.0 mg/kg/injection, schedule: Q01DX009 (ip), vehicle: Klucel (hydroxypropylcellulose) (HPC) 100 % of control | [6] 106 % of control | dose: 150.0 mg/kg/injection, schedule: Q01DX009 (ip), vehicle: Klucel (hydroxypropylcellulose) (HPC) 101 % of control | [7] 103 % of control | dose: 300.0 mg/kg/injection, schedule: Q01DX009 (ip), vehicle: Klucel (hydroxypropylcellulose) (HPC) 94 % of control | dose: 300.0 mg/kg/injection, schedule: Q04DX003 (ip), vehicle: saline 93 % of control

O=Cc1cccc(/C=N/Nc2nnc(N/N=C/c3cccc(C=O)c3)c3ccccc23)c1
inactive: [1] 98 % of control | [8] 98 % of control | [2] 90 % of control | [3] 93 % of control
